Measurements as given in US20240109915A1, “NOVEL ACC INHIBITORS” (Pfizer Inc., priority 2022, published 2024).

target: recombinant human ACC1 (rhACC1) (Homo sapiens (Human), UniProt Q13085); experiment: Transcreener ADP detection FP assay, direct inhibition of rhACC1; assay type: biochemical; details: Geomean IC50, n ≥ 2 unless * then n = 1; 50 μM ATP, 30 μM acetyl-CoA
Experimental: The direct inhibition of ACC1 for the compounds of the present invention was determined using preparations of recombinant human ACC1 (rhACC1) (SEQ ID NO. 1)
Two liters of SF9 cells, infected with recombinant baculovirus containing full length human ACC1 cDNA, were suspended in ice-cold lysis buffer (25 mM Tris, pH 7.5; 150 mM NaCl; 10% glycerol; 5 mM imidazole (EMD Bioscience; Gibbstown, NJ); 2 mM TCEP (BioVectra; Charlottetown, Canada); Benzonase nuclease (10000 U/100 g cell paste; Novagen; Madison, WI); EDTA-free protease inhibitor cocktail (1 tab/50 ml; Roche Diagnostics; Mannheim, Germany). Cells were lysed by 3 cycles of freeze-thaw and centrifuged at 40,000×g for 40 minutes (4° C.). Supernatant was directly loaded onto a HisTrap FF crude column (GE Healthcare; Piscataway, NJ) and eluted with an imidazole gradient up to 0.5 M over 20 column volumes (CV). ACC1-containing fractions were pooled and diluted 1:5 with 25 mM Tris, pH 7.5, 2 mM TCEP, 10% glycerol and direct loaded onto a CaptoQ (GE Healthcare) column and eluted with an NaCl gradient up to 1 M over 20 CV's. Phosphate groups were removed from purified ACC1 by incubation with lambda phosphatase (100 U/10 μM target protein; New England Biolabs; Beverly, MA) for 14 hours at 4° C.; okadaic acid was added (1 μM final concentration; Roche Diagnostics) to inhibit the phosphatase. Purified ACC1 was exchanged into 25 mM Tris, pH 7.5, 2 mM TCEP, 10% glycerol, 0.5 M NaCl by 6 hour dialysis at 4° C. Aliquots were prepared and frozen at −80° C.
Measurement of rhACC1 Inhibition rhACC1 was assayed in a Corning #3820 (Corning, Tewksbury, MA) 384-well plate using the Transcreener ADP detection FP assay kit (Bellbrook Labs, Madison, Wisconsin) using the manufacturer's recommended conditions for a 50 μM ATP reaction. The final conditions for the assay were 50 mM HEPES, pH 7.2, 10 mM MgCl2, 7.5 mM tripotassium citrate, 2 mM DTT, 0.1 mg/mL BSA, 30 μM acetyl-CoA, 50 μM ATP, and 10 mM KHCO3. Typically, a […] was run for 60 min at room temp, and 10 μl of Transcreener stop and detect buffer was added and the combination incubated at room temp for an overnight (18 hours). The data was acquired on an Envision Fluorescence reader (PerkinElmer) using a 620 excitation Cy5 FP general dual mirror, 620 excitation Cy5 FP filter, 688 emission (S) and a 688 (P) emission filter.

IC50 [nM]	SMILES
0.9	CN(C)c1cc(C(=O)N2CCC3(CC2)CC(=O)c2nc(C(C)(C)C)sc2C3)cc(-c2ccc(C(N)=O)cc2)n1 [Example 22, 4-(4-(2-(tert-butyl)-4-oxo-4,7-dihydro-5H-spiro[benzo[d]thiazole-6,4′-piperidine]-1′-carbonyl)-6-(dimethylamino)pyridin-2-yl)benzamide]
7.2	COc1cc(C(=O)N2CCC3(CC2)CC(=O)c2nc(C(C)(C)C)sc2C3)cc(-c2ccc(C(N)=O)cc2)n1 [Example 23, 4-(4-(2-(tert-butyl)-4-oxo-4,7-dihydro-5H-spiro[benzo[d]thiazole-6,4′-piperidine]-1′-carbonyl)-6-methoxypyridin-2-yl)benzamide]
29.5	Cc1cnc(C)c2cc(C(=O)N3CCC4(CC3)CC(=O)c3nc(C(C)(C)C)sc3C4)ccc12 [Example 27, 2-(tert-butyl)-1′-(1,4-dimethylisoquinoline-7-carbonyl)-5H-spiro[benzo[d]thiazole-6,4′-piperidin]-4(7H)-one]
11.1	CCc1nccc2c(OC)cc(C(=O)N3CCC4(CC3)CC(=O)c3nc(C(C)(C)C)sc3C4)cc12 [Example 29, 2-(tert-butyl)-1′-(1-ethyl-5-methoxyisoquinoline-7-carbonyl)-5H-spiro[benzo[d]thiazole-6,4′-piperidin]-4(7H)-one]
4	CC(C)(C)c1nc2c(s1)CC1(CCN(C(=O)c3ccc4ccc(NC5CCC5)nc4c3)CC1)CC2=O [Example 31, 2-(tert-butyl)-1′-(2-(cyclobutylamino)quinoline-7-carbonyl)-5H-spiro[benzo[d]thiazole-6,4′-piperidin]-4(7H)-one]
3.5	CCNc1ccc2ccc(C(=O)N3CCC4(CC3)CC(=O)c3nc(C(C)(C)C)sc3C4)cc2n1 [Example 32, 2-(tert-butyl)-1′-(2-(ethylamino)quinoline-7-carbonyl)-5H-spiro[benzo[d]thiazole-6,4′-piperidin]-4(7H)-one]
23.2	COc1c(C)cc(C(=O)N2CCC3(CC2)CC(=O)c2nc(C(C)(C)C)sc2C3)c2[nH]ncc12 [Example 36, 2-(tert-butyl)-1′-(4-methoxy-5-methyl-1H-indazole-7-carbonyl)-5H-spiro[benzo[d]thiazole-6,4′-piperidin]-4(7H)-one]
6.4	CCNc1ccc2c(C)cc(C(=O)N3CCC4(CC3)CC(=O)c3nc(C(C)(C)C)sc3C4)cc2n1 [Example 39, 2-(tert-butyl)-1′-(2-(ethylamino)-5-methylquinoline-7-carbonyl)-5H-spiro[benzo[d]thiazole-6,4′-piperidin]-4(7H)-one]
1.5	CNc1ccc2c(OC)cc(C(=O)N3CCC4(CC3)CC(=O)c3nc(C(C)(C)C)sc3C4)cc2n1 [Example 40, 2-(tert-butyl)-1′-(5-methoxy-2-(methylamino)quinoline-7-carbonyl)-5H-spiro[benzo[d]thiazole-6,4′-piperidin]-4(7H)-one]
5.2	COc1cc(C(=O)N2CCC3(CC2)CC(=O)c2nc(C(C)(C)C)sc2C3)cc2c(OC)cncc12 [Example 43, 2-(tert-butyl)-1′-(4,8-dimethoxyisoquinoline-6-carbonyl)-5H-spiro[benzo[d]thiazole-6,4′-piperidin]-4(7H)-one]
7.6	Cc1n[nH]c2c(C)cc(C(=O)N3CCC4(CC3)CC(=O)c3nc(C(C)(C)C)sc3C4)cc12 [Example 45]
85.9	COc1nccc2ccc(C(=O)N3CCC4(CC3)CC(=O)c3nc(C(C)(C)C)sc3C4)cc12 [Example 46]
10000	Cc1cc(C(=O)N2CCC3(CC2)CC(=O)c2nc(C(C)(C)C)sc2C3)cc2cccnc12 [Example 48]
5.4	Cc1cc(C(=O)N2CCC3(CC2)CC(=O)c2nc(C(C)(C)C)sc2C3)cc2c(Cl)n[nH]c12 [Example 50]
2.4	Cc1cc(C(=O)N2CCC3(CC2)CC(=O)c2nc(C(C)(C)C)sc2C3)c(O)c2ccccc12 [Example 52]
3.5	Cc1ccc(C)c2[nH]c(C(=O)N3CCC4(CC3)CC(=O)c3nc(C(C)(C)C)sc3C4)cc12 [Example 55]
5.8	COc1ccc(C)c2[nH]c(C(=O)N3CCC4(CC3)CC(=O)c3nc(C(C)(C)C)sc3C4)cc12 [Example 56]

Continued, compound first:

SMILES	IC50 [nM]
CCOc1cnc2c(C)cc(C(=O)N3CCC4(CC3)CC(=O)c3nc(C(C)(C)C)sc3C4)cc2c1 [Example 20, 2-(tert-butyl)-1′-(3-ethoxy-8-methylquinoline-6-carbonyl)-5H-spiro[benzo[d]thiazole-6,4′-piperidin]-4(7H)-one]	30.1
CSc1cnc2c(C)cc(C(=O)N3CCC4(CC3)CC(=O)c3nc(C(C)(C)C)sc3C4)cc2c1 [Example 21, 2-(tert-butyl)-1′-(8-methyl-3-(methylthio)quinoline-6-carbonyl)-5H-spiro[benzo[d]thiazole-6,4′-piperidin]-4(7H)-one]	3.6
CNc1nccc2c(C)cc(C(=O)N3CCC4(CC3)CC(=O)c3nc(C(C)(C)C)sc3C4)cc12 [Example 24, 2-(tert-butyl)-1′-(5-methyl-1-(methylamino)isoquinoline-7-carbonyl)-5H-spiro[benzo[d]thiazole-6,4′-piperidin]-4(7H)-one]	3.1
Cc1cc(C(=O)N2CCC3(CC2)CC(=O)c2nc(C(C)(C)C)sc2C3)cc2c(C3CC3)nccc12 [Example 25, 2-(tert-butyl)-1′-(1-cyclopropyl-5-methylisoquinoline-7-carbonyl)-5H-spiro[benzo[d]thiazole-6,4′-piperidin]-4(7H)-one]	6.6
COc1cc(C(=O)N2CCC3(CC2)CC(=O)c2nc(C(C)(C)C)sc2C3)cc2c(C)nccc12 [Example 28, 2-(tert-butyl)-1′-(5-methoxy-1-methylisoquinoline-7-carbonyl)-5H-spiro[benzo[d]thiazole-6,4′-piperidin]-4(7H)-one]	6.2
CC(C)Nc1ccc2ccc(C(=O)N3CCC4(CC3)CC(=O)c3nc(C(C)(C)C)sc3C4)cc2n1 [Example 30, 2-(tert-butyl)-1′-(2-(isopropylamino)quinoline-7-carbonyl)-5H-spiro[benzo[d]thiazole-6,4′-piperidin]-4(7H)-one]	4.6
Cc1cc(C(=O)N2CCC3(CC2)CC(=O)c2nc(C(C)(C)C)sc2C3)c2[nH]ncc2c1Cl [Example 34, 2-(tert-butyl)-1′-(4-chloro-5-methyl-1H-indazole-7-carbonyl)-5H-spiro[benzo[d]thiazole-6,4′-piperidin]-4(7H)-one]	1.3
Cc1cc(C(=O)N2CCC3(CC2)CC(=O)c2nc(C(C)(C)C)sc2C3)c2[nH]ncc2c1C [Example 35, 2-(tert-butyl)-1′-(4,5-dimethyl-1H-indazole-7-carbonyl)-5H-spiro[benzo[d]thiazole-6,4′-piperidin]-4(7H)-one]	2.6
COc1ccnc2c(C)cc(C(=O)N3CCC4(CC3)CC(=O)c3nc(C(C)(C)C)sc3C4)cc12 [Example 41, 2-(tert-butyl)-1′-(4-methoxy-8-methylquinoline-6-carbonyl)-5H-spiro[benzo[d]thiazole-6,4′-piperidin]-4(7H)-one]	15.3
COc1cc(C(=O)N2CCC3(CC2)CC(=O)c2nc(C(C)(C)C)sc2C3)cc2c(C)n[nH]c12 [Example 49]	6.4
Cc1c[nH]c2cc(C(=O)N3CCC4(CC3)CC(=O)c3nc(C(C)(C)C)sc3C4)ccc12 [Example 51]	22.4
CNc1cc2ccccc2cc1C(=O)N1CCC2(CC1)CC(=O)c1nc(C(C)(C)C)sc1C2 [Example 53]	18.1
